From article PMC11858624, “Antioxidant and Tyrosinase-Inhibitory Activities and Biological Bioactivities of Flavonoid Derivatives from Quercus mongolica Pollen” (Molecules, 2025)

Legend:
[1] = DPPH radical scavenging antioxidant assay; settings: for IC50: DPPH radical scavenging, 10 min incubation, PC = positive control ascorbic acid; for DPPH scavenging activity: at a concentration of 100 µM
Protocol: The antioxidant properties of compounds 1–18 isolated from the pollen of Q. mongolica were assessed through DPPH assay.
The radical scavenging activity of DPPH (Sigma-Aldrich) was hired for the antioxidant activity. For each assay, 10 mM of each compound isolated from the pollen of Q. mongolica (1 µL) was evaluated, followed by 49 µL of MeOH in each well. Subsequently, 50 µL of 0.3 mM DPPH solution (Sigma-Aldrich) was added. The final concentration was tested to 0.1 mM. The mixture was incubated for 10 min, and antioxidant activity was evaluated by measuring UV at 550 nm using a Dynatech MR 500 plate reader. […]

[2] = biological target: mushroom tyrosinase (Agaricus bisporus, UniProt C7FF04); experiment: Tyrosinase inhibition assay (dopachrome formation, absorbance at 490 nm); assay type: biochemical; settings: at a concentration of 100 µM
Chain of mushroom tyrosinase (C7FF04 1-392): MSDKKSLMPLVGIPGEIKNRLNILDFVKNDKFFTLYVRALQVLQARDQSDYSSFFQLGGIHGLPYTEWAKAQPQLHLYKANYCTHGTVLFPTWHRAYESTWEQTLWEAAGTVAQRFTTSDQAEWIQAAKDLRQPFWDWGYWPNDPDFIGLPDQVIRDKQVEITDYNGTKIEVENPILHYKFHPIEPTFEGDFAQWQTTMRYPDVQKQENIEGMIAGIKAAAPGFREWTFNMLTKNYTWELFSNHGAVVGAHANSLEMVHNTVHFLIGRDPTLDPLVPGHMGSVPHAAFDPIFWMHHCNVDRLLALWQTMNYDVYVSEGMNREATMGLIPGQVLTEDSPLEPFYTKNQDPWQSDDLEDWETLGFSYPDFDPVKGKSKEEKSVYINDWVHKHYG
Chain of mushroom tyrosinase (G1K3P4 1-150 partner): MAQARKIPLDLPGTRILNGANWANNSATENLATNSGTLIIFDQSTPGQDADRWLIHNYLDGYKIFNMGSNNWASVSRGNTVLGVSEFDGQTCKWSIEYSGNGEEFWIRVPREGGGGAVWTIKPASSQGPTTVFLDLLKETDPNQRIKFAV
Protocol: Tyrosinase is a crucial enzyme in melanin synthesis, participating as an oxidase in the initial steps of melanin formation.
Evaluation of tyrosinase-inhibitory activity was conducted using mushroom tyrosinase (Sigma-Aldrich). For each test, 10 mM of each compound isolated from the pollen of Q. mongolica (1 µL) was evaluated. A 50 µL portion of 1 mM tyrosine (Sigma-Aldrich) dissolved in phosphate-buffered saline was introduced into each well, followed by a 5 min incubation period. Mushroom tyrosinase was prepared to a final concentration of 0.1 U/mL in phosphate-buffered saline, and 49 µL of the prepared enzyme solution was added to the wells, resulting in a compound concentration of 0.1 mM. The mixture underwent a 15 min incubation, after which the production of dopachrome was evaluated by recording the absorbance at 490 nm using a Dynatech MR 500 plate reader (Dynatech, Charlottesville, VA, USA). […] The percentage inhibition for each sample was determined at concentrations of […]. The IC50 value was calculated as the concentration of the compound required to achieve 50% inhibition of tyrosinase activity.

IC50 [1] | Compound | DPPH scavenging activity [1] | inhibition at 100 µM [2]
> 100 µM | COc1cc(-c2oc3cc(O)cc(O)c3c(=O)c2OC2OC(COC3OCC(O)C(O)C3O)C(O)C(O)C2OC(C)=O)ccc1O (stereo not shown) [Compound 1, mongolinodoside A] |  | 
34.3 µM | O=c1c(OC2OC(CO)C(O)C(O)C2OC2OC(CO)C(O)C(O)C2O)c(-c2ccc(O)c(O)c2)oc2cc(O)cc(O)c12 (stereo not shown) [Compound 2, quercetin 3-sophoroside] | over 90% | 
> 100 µM | COc1cc(-c2oc3cc(O)cc(O)c3c(=O)c2OC2OC(CO)C(O)C(O)C2OC2OC(C)C(O)C(O)C2O)ccc1O (stereo not shown) [Compound 3, calendoflavoside] |  | 
> 100 µM | O=c1c(OC2OC(CO)C(O)C(O)C2OC2OCC(O)C(O)C2O)c(-c2ccc(O)cc2)oc2cc(O)cc(O)c12 (stereo not shown) [Compound 4, leucoside] |  | 
18.4 µM | O=c1c(OC2OC(CO)C(O)C(O)C2OC2OCC(O)C(O)C2O)c(-c2ccc(O)c(O)c2)oc2cc(O)cc(O)c12 (stereo not shown) [Compound 5, quercetin 3-sambubioside] | over 90% | 
> 100 µM | COc1cc(-c2oc3cc(O)cc(O)c3c(=O)c2OC2OC(COC3OCC(O)C(O)C3O)C(O)C(O)C2O)ccc1O [Compound 6, Isorhamnetin 3-O-β-D-xylopyranosyl (1→6)-β-D-glucopyranoside] |  | 
> 100 µM | O=c1c(O[C@@H]2O[C@H](CO)[C@@H](O)[C@H](O)[C@H]2O)c(-c2ccc(O)cc2)oc2cc(O)cc(O)c12 [Compound 7, astragalin] |  | 
28.5 µM | O=c1c(O[C@@H]2O[C@H](CO)[C@@H](O)[C@H](O)[C@H]2O)c(-c2ccc(O)c(O)c2)oc2cc(O)cc(O)c12 [Compound 8, isoquercetin] | over 90% | 
> 100 µM | COc1cc(-c2oc3cc(O)cc(O)c3c(=O)c2OC2OC(CO)C(O)C(O)C2O)ccc1O (stereo not shown) [Compound 9, isorhamnetin 3-glucoside] |  | 
> 100 µM | COc1c(O)cc(O)c2c(=O)c(OC3OC(CO)C(O)C(O)C3O)c(-c3ccc(O)cc3)oc12 (stereo not shown) [Compound 10, 8-methoxykaempferol 3-glucoside] |  | 
> 100 µM | COc1cc(-c2oc3c(OC)c(O)cc(O)c3c(=O)c2OC2OC(CO)C(O)C(O)C2O)ccc1O (stereo not shown) [Compound 11, limocitrin 3-glucoside] |  | 
52.3 µM | COc1cc(-c2oc3c(OC)c(O)cc(O)c3c(=O)c2O)ccc1O [Compound 14, limocitrin] | over 90% | 
> 100 µM | O=c1cc(-c2ccc(O)cc2)oc2cc(O)cc(O)c12 [Compound 15, apigenin] |  | 
> 100 µM | O=C1C[C@@H](c2ccc(O)cc2)Oc2cc(O)cc(O)c21 [Compound 17, naringenin] |  | 
> 100 µM | COc1ccc(-c2coc3cc4c(c(O)c3c2=O)C=CC(C)(C)O4)cc1 [Compound 18, 4′-methylalpinumisoflavone] |  | 
28.5 µM | O=C1O[C@H]([C@@H](O)CO)C(O)=C1O [ascorbic acid, reference compound] |  | 

Compound | IC50 [1] | DPPH scavenging activity [1] | inhibition at 100 µM [2]
O=c1c(O)c(-c2ccc(O)cc2)oc2cc(O)cc(O)c12 [Compound 12, kaempferol] | 42.4 µM | over 90% | > 70%
COc1cc(-c2oc3cc(O)cc(O)c3c(=O)c2O)ccc1O [Compound 13, isorhamnetin] | 25.5 µM | over 90% | 
O=c1cc(-c2ccc(O)c(O)c2)oc2cc(O)cc(O)c12 [Compound 16, luteolin] | 9.7 µM | over 90% | > 50%
